Data from patent US10765114B2, “4-amino-6-(pyridyl and 2-substitutedphenyl)-picolinates and 6-amino-2-(pyridyl and 2-substitutedphenyl)-pyrimidine-4-carboxylates and their use as herbicides” (Dow AgroSciences LLC, priority 2013, dated 2020).

What was measured:
Assay in all cases: Post-Emergent Test III (Wheat and Barley)
BROTE (downy brome) = type: in vivo, Bromus tectorum; settings: for Visual Growth Reduction (%) 21 Days After Application, BROTE: postemergence; for GR50, BROTE: effective dose for growth reduction of 50 percent; for GR50, BROTE / GR80, BROTE / GR90, BROTE: probit analysis; for GR80, BROTE: effective dose for growth reduction of 80 percent; for GR90, BROTE: effective dose for growth reduction of 90 percent
Procedure: (§1) Seeds of the desired test plant species were planted in Sun Gro MetroMix® 306 planting mixture, which typically has a pH of 6.0 to 6.8 and an organic matter content of about 30 percent, in plastic pots with a surface area of 103.2 square centimeters (cm^2). When required to ensure good germination and healthy plants, a fungicide treatment and/or other chemical or physical treatment was applied. The plants were grown for 7-36 days in a greenhouse with an approximate 14 h photoperiod which was maintained at about 18° C. during the day and 17° C. during the night. Nutrients and water were added on a regular basis and supplemental lighting was provided with overhead metal halide 1000-Watt lamps as necessary. The plants were employed for testing when they reached the second or third true leaf stage.
(§2) A weighed amount, determined by the highest rate to be tested, of each test compound was placed in a 25 mL glass vial and was dissolved in 4 mL of a 97:3 v/v mixture of acetone and DMSO to obtain concentrated stock solutions. […] The concentrated stock solutions obtained were diluted with 20 mL of an aqueous mixture containing acetone, water, isopropyl alcohol, DMSO, Agri-Dex crop oil concentrate, and X-77 surfactant in a 48:39:10:1.5:1.5:0.02 v/v ratio to obtain spray solutions containing the highest application rates. Additional application rates were obtained by serial dilution of 12 mL of the high rate solution into a solution containing 2 mL of 97:3 v/v mixture of acetone and DMSO and 10 mL of an aqueous mixture containing acetone, water, isopropyl alcohol, DMSO, Agri-Dex crop oil concentrate, and X-77 surfactant in a 48:39:10:1.5:1.5:0.02 v/v ratio to obtain ½×, ¼×, ⅛× and 1/16× rates of the high rate. Compound requirements are based upon a 12 mL application volume at a rate of 187 liters per hectare (L/ha). Formulated compounds were applied to the plant material with an overhead Mandel track sprayer equipped with 8002E nozzles calibrated to deliver 187 L/ha over an application area of 0.503 square meters at a spray height of 18 inches (43 cm) above the average plant canopy height. Control plants were sprayed in the same manner with the solvent blank.
(§3) The treated plants and control plants were placed in a greenhouse as described above and watered by subirrigation to prevent wash-off of the test compounds. After 21 dAYS, the condition of the test plants as compared with that of the untreated plants was determined visually and scored on a scale of 0 to 100 percent where 0 corresponds to no injury and 100 corresponds to complete kill and presented as indicated in Table A.
(§4) By applying the well-accepted probit analysis as described by J. Berkson in Journal of the American Statistical Society, 48, 565 (1953) and by D. Finney in “Probit Analysis” Cambridge University Press (1952), herbicidal injury of a specific compound at various rates can be used to calculate GR10, GR20, GR50, GR80 and GR90 values, which are defined as growth reduction factors that correspond to the effective dose of herbicide required to provide plant growth reduction (GR) of 10 percent, 20 percent, 50 percent, 80 percent and 90 percent, respectively. Probit analysis was applied to data collected from multiple dose rates of individual compounds utilizing the procedures explained in the following examples. The analysis of those dose rates is captured in the following tables.

[1] = tested on: LAMPU (purple deadnettle); type: in vivo, Lamium purpureum; settings: for Visual Growth Reduction (%) 21 Days After Application, LAMPU: postemergence; for GR50, LAMPU: effective dose for growth reduction of 50 percent; for GR50, LAMPU / GR80, LAMPU / GR90, LAMPU: probit analysis; for GR80, LAMPU: effective dose for growth reduction of 80 percent; for GR90, LAMPU: effective dose for growth reduction of 90 percent
Procedure: as §1, §2, §3, §4

BRSSS = type: in vivo; settings: for Visual Growth Reduction (%) 21 Days After Application, BRSSS: postemergence; for GR50, BRSSS: effective dose for growth reduction of 50 percent; for GR50, BRSSS / GR80, BRSSS / GR90, BRSSS: probit analysis; for GR80, BRSSS: effective dose for growth reduction of 80 percent; for GR90, BRSSS: effective dose for growth reduction of 90 percent
Summary of the method: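 Post-emergence foliar spray, 187 L/ha, serial ½×–1/16× rates; plants at 2nd–3rd true leaf; greenhouse ~18 °C day/17 °C night, 14 h light; subirrigated after treatment. Visual injury 0–100% at 21 d vs untreated; GR values by probit analysis over multiple rates.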

[2] = tested on: PHAMI (littleseed canarygrass); type: in vivo, Phalaris minor; settings: for Visual Growth Reduction (%) 21 Days After Application, PHAMI: postemergence; for GR50, PHAMI: effective dose for growth reduction of 50 percent; for GR50, PHAMI / GR80, PHAMI / GR90, PHAMI: probit analysis; for GR80, PHAMI: effective dose for growth reduction of 80 percent; for GR90, PHAMI: effective dose for growth reduction of 90 percent
Procedure: as §1, §2, §3, §4

Row | SMILES | Visual Growth Reduction (%) 21 Days After Application, BROTE (BROTE (downy brome); 35 g ai/ha) | Visual Growth Reduction (%) 21 Days After Application, BROTE (BROTE (downy brome); 70 g ai/ha) | Visual Growth Reduction (%) 21 Days After Application, BROTE (BROTE (downy brome); 140 g ai/ha) | GR50, BROTE (BROTE (downy brome)) [g ai/ha] | GR80, BROTE (BROTE (downy brome)) [g ai/ha] | GR90, BROTE (BROTE (downy brome)) [g ai/ha] | Visual Growth Reduction (%) 21 Days After Application, LAMPU ([1]; 35 g ai/ha) | Visual Growth Reduction (%) 21 Days After Application, LAMPU ([1]; 70 g ai/ha) | Visual Growth Reduction (%) 21 Days After Application, LAMPU ([1]; 140 g ai/ha) | GR50, LAMPU [1] [g ai/ha] | GR80, LAMPU [1] [g ai/ha] | GR90, LAMPU [1] [g ai/ha] | Visual Growth Reduction (%) 21 Days After Application, BRSSS (BRSSS; 35 g ai/ha) | Visual Growth Reduction (%) 21 Days After Application, BRSSS (BRSSS; 70 g ai/ha) | Visual Growth Reduction (%) 21 Days After Application, BRSSS (BRSSS; 140 g ai/ha) | GR50, BRSSS (BRSSS) [g ai/ha] | GR80, BRSSS (BRSSS) [g ai/ha] | GR90, BRSSS (BRSSS) [g ai/ha] | Visual Growth Reduction (%) 21 Days After Application, PHAMI ([2]; 35 g ai/ha) | Visual Growth Reduction (%) 21 Days After Application, PHAMI ([2]; 70 g ai/ha) | further results
1 | Cc1c(-c2cc(N)c(Cl)c(C(=O)O)n2)ccc(Cl)c1F [Compound 52] | G (0-29) | F (30-44) | D (60-74) | 98 | >140 | >140 | A (95-100) | A (95-100) | A (95-100) | <17.5 | <17.5 | <17.5 | B (85-94) | B (85-94) | B (85-94) | 1 | 11 | 41 | C (75-84) | B (85-94) | Visual Growth Reduction (%) 21 Days After Application, PHAMI ([2]; 140 g ai/ha): B (85-94); GR50, PHAMI [2]: 18 g ai/ha; GR80, PHAMI [2]: 38 g ai/ha; GR90, PHAMI [2]: 56 g ai/ha
2 | COC(=O)c1nc(-c2ccc(Cl)c(F)c2C)cc(N)c1Cl [Compound 73] | E (45-59) | D (60-74) | D (60-74) | 59 | >140 | >140 | A (95-100) | A (95-100) | A (95-100) | <17.5 | <17.5 | <17.5 | C (75-84) | B (85-94) | A (95-100) | 5 | 29 | 73 | D (60-74) | D (60-74) | Visual Growth Reduction (%) 21 Days After Application, PHAMI ([2]; 140 g ai/ha): C (75-84); GR50, PHAMI [2]: 40 g ai/ha; GR80, PHAMI [2]: 107 g ai/ha; GR90, PHAMI [2]: >140 g ai/ha
